≈ marks a conversion by molar mass, not a printed value. Like-named read-outs stand apart in the source and are kept apart here.
What was measured:
Aspergillus versicolor = experiment: Poison Plate Assay (Experiment 1), Aspergillus versicolor; settings: ppm total active ingredient, Glucose Agar, 22° C., evaluation after two weeks; for MIC: Aspergillus versicolor, 336 h
[1] = tested on: Streptomyces griseus (g+); experiment: Poison Plate Assay (Experiment 2), Streptomyces griseus; type: cell-based; settings: 120 h, Table 3, pyrimethanil with Microsil™, ppm total active ingredient, Tryptose Agar, 27° C., evaluation after 5 days, read-out: MIC-values (minimum inhibitory concentration)
From the text: [formula] wherein: • QA is the concentration of compound A in ppm, acting alone, which produced an end point (e.g. MIC), • Qa is the concentration of compound A in ppm, in the mixture, which produced an end point (e.g. MIC), • QB is the concentration of compound B in ppm, acting alone, which produced an end point (e.g. MIC), • Qb is the concentration of compound B in ppm, in the mixture, which produced an end point (e.g. MIC). When the Synergy Index is greater than 1.0, antagonism is indicated. When the SI is equal to 1.0, additivity is indicated.
Experiment 2: Poison Plate Assay • Name of the primary compound: —pyrimethanil (I) • Name of the silver salt: —Microsil™ from Avecom (Bloemendalestraat 138, 8730 Beernem, Belgium) • Microsil™ is a suspension of colloidal silver metal particles, produced by and clustered on probiotic bacteria. The diameter of the silver particles varies between 3 to 20 nm. The oxidation state of the silver in Microsil™ is 0 (Ag^0). • Microsil™ is produced as a suspension of finely dispersed colloidal Ag^0 particles, stabilized on a biological carrier molecule, in water. The probiotic carrier exists only as a non-viable and stabilizing biocomponent. • Stock solution: 1000 ppm in DMSO • Test combinations: […]

Escherichia coli = experiment: Poison Plate Assay (Experiment 1), Escherichia coli; settings: for MIC-values (minimum inhibitory concentration): ppm total active ingredient, Tryptose Agar, 27° C., evaluation after one week
Rhodoturula rubra = experiment: Poison Plate Assay (Experiment 1), Rhodoturula rubra; settings: for MIC-values (minimum inhibitory concentration): ppm total active ingredient, Glucose Agar, 22° C., evaluation after two weeks
[2] = Table 2, pyrimethanil with silver perchlorate
[3] = Table 1, pyrimethanil with silver nitrate

Row | SMILES | MIC (Aspergillus versicolor; read-out: MIC-values (minimum inhibitory concentration), Table 1, pyrimethanil with silver nitrate) | MIC (Aspergillus versicolor; read-out: MIC-values (minimum inhibitory concentration), Table 2, pyrimethanil with silver perchlorate) | MIC [1] | MIC (Escherichia coli; Escherichia coli, 168 h, read-out: MIC-values (minimum inhibitory concentration)) | MIC-values (minimum inhibitory concentration) (Escherichia coli; [2]) | MIC (Rhodoturula rubra; 336 h, read-out: MIC-values (minimum inhibitory concentration)) | MIC-values (minimum inhibitory concentration) (Rhodoturula rubra; [2]) | MIC-values (minimum inhibitory concentration) (Aspergillus versicolor; [3]) | MIC-values (minimum inhibitory concentration) (Escherichia coli; [3]) | MIC-values (minimum inhibitory concentration) (Rhodoturula rubra; [3])
1 | Cc1cc(C)nc(Nc2ccccc2)n1 [pyrimethanil, 4,6-dimethyl-N-phenyl-2-pyrimidinamine] | 667 µg/mL (≈ 3350 µM) | 375 µg/mL (≈ 1880 µM) | 66.7 µg/mL | 667 µg/mL (≈ 3350 µM) | 666.67 ppm | 281 µg/mL (≈ 1410 µM) | 281.25 ppm | – | – | –
2 | O=[N+]([O-])[O-].[Ag+] [silver nitrate] | – | – | – | – | – | – | – | 118.65 ppm | 66.67 ppm | 118.65 ppm
